Measurements reported in patent US5874528A, “Binding peptides which interact with ligand growth factors of the epidermal growth factor receptor and erbB-2 receptor” (Georgetown University, priority 1994, dated 1999).
Ends that are not written are not given here.

Experiments:
[1] = tested on: monoclonal antibody 4D5; assay: binding of iodinated RL2 to a 4D5 affinity column
Experimental: First, RL2 peptide was iodinated using Iodogen, and purified with high-pressure liquid chromatography (HPLC); the specific activity was 26,000 cpm/μg peptide. […] 3×10^6 cpm of iodinated RL2 were loaded onto a protein A-sepharose column coupled with 4D5 (coupling percentage: 98.5%). Elutions were performed with increasing concentrations of MgCl2 from 1 to 5M (see Table 1). The specific elution marked as * on Table I was obtained at 2M MgCl2. The flow-through contained only background levels of radioactivity.

[2] = tested on: MDA-MB-453 cells; assay: soft agar colony formation (anchorage-independent growth) of MDA-MB-453 cells; assay type: cell-based, human; conditions: for Number of Colonies (± SD): MDA-MB 453 cells, untreated 942 ± 120
Experimental: (§1) MDA-MB-453 (A), or SK-Br-3 cells (B) were plated in 35 mm tissue culture dishes (Costar). A bottom layer of 1 ml IMEM containing 0.6% Bacto-agar (Difco), 2 mM glutamine, and 10% FCS was prepared. Top layers contained 2×10^4 cells and samples in 0.4% Bacto-agar, 10% FCS IMEM. Samples were sterilized prior to plating by filtration using 0.22 μM Millex CU millipore filter. The legend of peptide symbols in A is identical to the one in FIG. 2. The following concentrations were used in B: 5×10^-12 M gp30, 2×10^-12 M p75, 60 μM RL2, and 127 nM p185^erbB-2 extracellular domain (ECD) as positive control. Experiments were carried out in FCS that had been tested for optimal cloning efficiency. Cells were incubated 7-9 days in humidified 5% CO2 atmosphere at 37° C. Colonies larger than 60-μm were counted using a Baush and Lomb Stem Cell Colony Counter (Artex Systems Corp.). Each group was assayed in triplicate. Experiments were performed three times.
*Cells were treated as indicated. The monoclonal antibody 4D5 (kindly
provided by Genentech, CA) and the RL2 peptide were used as positive
controls. Soft agar cloning assays were carried out as previously
described (Lupu, et al., Proc. Natl. Acad. Sci. USA, 87:2287-91, 1992).
Colonies larger than 69 μM were counted using a Baush & Lomb Stem Cell
Colony Counter (Artex Systems Corp.). Each group was assayed in
triplicate. Experiments were performed three times with similar results.

[3] = tested on: EGFR; assay: EGFR binding competition assay with iodinated EGF in MDA-MB-468 cells; design: species or system human; conditions: 1 nM iodinated EGF, peptide 0.6, 6, 60 μM
Experimental: FIG. 6A: EGFR binding competition assays were performed in MDA-MB-468 cells. In brief, 150,000 cells/well were plated in 24 well plate. The binding assays were performed as described by Lonardo, et al., Mol. Cell. Biol, 2:992 (1990). In brief, 1 nM iodinated EGF (Amersham) was incubated with increasing concentrations of RL2 or RL2-K (0.6, 6, 60 μM, respectively). Increasing concentrations of unlabelled EGF were used as control, as shown in the insert. Each group was assayed in triplicate. Values are from three experiments and expressed as the mean percent of control cases.
(§2) To explore whether the RL2 peptide could specifically represent either a p185^erbB-2 or EGFR-extracellular binding site, we tested the aforementioned peptides in p185^erbB-2 or EGFR binding competition assays. Since iodinated gp30 was not available, p185^erbB-2 and EGFR competition assays were performed using iodinated monoclonal antibody 4D5 and iodinated EGF respectively. p185^erbB-2 monoclonal antibodies 4D5 and 7C2 were provided by Genentech, Inc., South San Francisco, Calif.
Among the peptides tested, only RL2 displaced in a dose-dependent manner (B/T 50: 8 μM) the binding of iodinated 4D5 to SK-Br-3 (FIG. 2).

[4] = tested on: p185^erbB-2; assay: p185^erbB-2 binding competition assay with iodinated 4D5 on SK-Br-3 cells; design: species or system human; conditions: 1 nM iodinated 4D5, 3 hours at 4° C., read-out: B/T 50, displacement of the binding of iodinated 4D5 to SK-Br-3
Experimental: SK-Br-3 cells were placed in 48-well plates (Costar) in 5% fetal calf serum (FCS), IMEM (Biofluids).Cells were washed and incubated for 30 minutes at 37° C. with binding buffer [1 mg/ml BSA, 10 mM Hepes, 20 mM glutamine, DMEM-F12 pH 7.4]. Binding studies were performed for 3 hours at 4° C. On SK-Br-3 cells, 1 nM iodinated 4D5 was incubated with various concentrations of P1 (.largecircle.), P2 (.circle-solid.), P3 (Δ), P4 (.tangle-solidup.), RL1 (.quadrature.), and RL2 (.box-solid.) unlabeled peptides (A), or with unlabeled 4D5 (B). After incubation, cells were washed three times with binding buffer, and solubilized with 1% SDS. Unspecific binding of iodinated 4D5 was determined with an excess (100 nM) of unlabeled 4D5. Each group was assayed in triplicate. Experiments were performed three times with similar results.
as §2, with “Calif. […]” for “Calif.”

[5] = tested on: EGFR; assay: in vitro tyrosine phosphorylation assay in MDA-MB-468 cells; assay type: cell-based, human
Experimental: (§3) Cells were grown in 24-well plates (Costar) to 70% confluence in 5% FCS IMEM and serum-starved 24 hours prior to assays. Cells were then treated for 20 minutes at 37° C. with RL1 or RL2 with and without gp30 (at concentrations given below), as indicated on Figure panels, washed once with serum-free IMEM, and lysed at 4° C. for 10 minutes with a lysis buffer containing SDS (Emprotech). Total cellular proteins were subjected to 4-20% SDS-PAGE, and blotted onto Hybond-ECL membranes (Amersham). Membranes were blocked with tris-buffered saline [5% BSA, 0.5% Tween 20] and probed with 1 μg/ml phosphotyrosine monoclonal antibody (UBI) in tris-buffered saline [0.5% BSA, 0.5% Tween 20]. Immune complexes were detected using the ECL-western blotting kit (Amersham) as indicated by the manufacturer. Densitometric analyses were performed using a SAMBA 4000 system (Dynatech Laboratories). The values obtained were corrected for background and expressed as control percentages. Differences were considered significant when effects more than 10% versus controls occurred.
Upper panels correspond to MDA-MB-453 cells. […] Lower panels correspond to MDA-MB-468 cells. […] Lanes 1 to 4 correspond to increasing concentrations of RL2 (left panels), or RL1 (right panels) peptides. 1: 0.06 μM; 2: 0.6 μM; 3: 6 μM; 4: 60 μM. Experiments were repeated four times with similar results.
FIG. 6B: EGFR Tyrosine Phosphorylation assays were performed using MDA-MB-468 cells, as described for FIG. 3. […]
(§4) To further characterize RL2 blocking effects, we analyzed the homologous peptides for their ability to prevent the tyrosine phosphorylation induced by gp30 either in p185^erbB-2 or EGFR, or both of them. […] (Densitometric analyses of autoradiograms were performed using a SAMBA 4000 system (Dynatech Laboratories). The values obtained were corrected for background and expressed as control percentages. Differences were considered significant when effects more than 10% versus controls occurred.)

[6] = tested on: p185^erbB-2; assay: in vivo phosphorylation assay and phosphoaminoacid analysis in MDA-MB-453 cells; assay type: cell-based, human
Experimental: MDA-MB-453 cells were grown in 35 mm dishes (Costar) to 70% confluence in 5% FCS IMEM. Cells were washed twice with PO4 free DMEM (Gibco), and then incubated for 3 hours at 37° C. with [^32 P]-orthophosphate (Amersham; 1.0 mCi/ml in each dish). Cells were then treated for 10 minutes at 37° C. with samples: control, 60 μM RL2, 50×10^-12 M gp30, or 50×10^-12 M gp30 plus 60 μM RL2. All samples were preincubated 30 minutes at 37° C. Cells were washed twice with PBS, and lysed at 4° C. for 10 minutes with a lysis buffer containing 1% Triton X-100, and kinase, protease and phosphatase inhibitors as described (Frackelton, et al., J. Biol. Chem., 259:7909 (1984)). After centrifugation at 10,000× g for 15 minutes at 4° C., tyrosinephosphorylated proteins were isolated from supernatants by microbath affinity chromatography on the phosphotyrosine monoclonal antibody 1G2 (provided by Dr. A. R. Frakelton) as previously described (Frackelton, et al., J. Biol Chem., 259:7909 (1984); and Beitz, et al., Proc. Natl. Acad. Sci. USA, 88:2021 (1991)), eluted with 1 mM phenylphosphate in PBS pH 7.4, and purified further by immunoprecipitation with p185^erbB-2 monoclonal antibody Ab-3 (Oncogene Science) adsorbed on protein A-Sepharose. […]

[7] = tested on: SK-Br-3 cells; assay: soft agar colony formation of SK-Br-3 cells with gp30 or p75; assay type: cell-based, human; conditions: 5×10^-12 M gp30 or 2×10^-12 M p75; 60 μM RL2, 127 nM ECD
Experimental: as §1
To illustrate RL2 antiproliferative effects as a blocking action on the p185^erbB-2 ligand-mediated effects, we tested this peptide and the ECD of p185^erbB-2 on the anchorage-independent growth of SK-Br-3 cells in the presence of stimulating concentrations of either gp30 or p75 proteins, the latter known to interact exclusively with p185^erbB-2 (Lupu, et al., Proc. Natl. Acad. Sci. USA, 89:2287-91 (1992)). […]

[8] = tested on: p185^erbB-2; assay: in vitro tyrosine phosphorylation assay in MDA-MB-453 cells; assay type: cell-based, human; conditions: 0.06 to 60 μM, gp30 50 pM
Experimental: as §3, with “Densitometric analyses were performed using a SAMBA 4000 system (Dynatech Laboratories).” left out, “Differences were considered significant when effects more than 10% versus controls occurred.” left out
as §4

[9] = tested on: MDA-MB-468 cells; assay: soft agar colony formation (anchorage-independent growth) of MDA-MB-468 cells; assay type: cell-based, human; conditions: 10 nM, positive control

Row | Substance | radioactivity, flow through ([1]; input 3 × 10^6 cpm iodinated RL2, flow through) | radioactivity, wash ([1]; input 3 × 10^6 cpm iodinated RL2, wash) | binding of iodinated peptide to 4D5-affinity column ([1]; protein A-sepharose column coupled with 4D5) | inhibition of MDA-MB-453 cell anchorage-independent growth ([2]; 6-60 μM) | Number of Colonies (± SD) ([2]; 6 μM) | Number of Colonies (± SD) ([2]; 60 μM) | effect on binding of iodinated EGF to the EGFR [3] | IC50 [4] | inhibition of gp30-stimulated level of EGFR tyrosine phosphorylation ([5]; 60 μM, gp30 50 pM) | inhibition of baseline level of EGFR tyrosine phosphorylation ([5]; 60 μM, no gp30) | effect on EGF-induced tyrosine phosphorylation of EGFR ([5]; EGF 1.68 nM, peptide 0.6, 6 and 60 μM) | decrease of p185^erbB-2 tyrosine level of phosphorylation, presence of gp30-stimulation ([6]; 60 μM RL2, 50×10^-12 M gp30) | decrease of p185^erbB-2 tyrosine level of phosphorylation, absence of gp30-stimulation ([6]; 60 μM RL2, [32P]-orthophosphate labelling) | inhibiting effects on anchorage-independent growth of SK-Br-3 cells in presence of gp30 or p75 [7] | inhibition of gp30-stimulated level of p185^erbB-2 tyrosine phosphorylation [8] | response of MDA-MB-468 cell anchorage-independent growth [9]
1 | LGLRSLRE [RL2] | 2.6 × 10^5 cpm | 2.54 × 10^5 cpm | specifically bind to a 4D5-affinity column | 72% | 245 ± 46 | 123 ± 21 | absence of an effect | 8 µM | not the gp30-stimulated level | 71% | no effect | 26% | 50% | fully reversed | 80% | 
2 | p185^erbB-2 ECD: p185^erbB-2 extracellular domain (ECD), positive control |  |  |  |  |  |  |  |  |  |  |  |  |  | fully reversed |  | 
3 | EGF: epidermal growth factor, positive control |  |  |  |  |  |  |  |  |  |  |  |  |  |  |  | did respond
